Assays:
[1] = elevated temperatures (e.g. 45° C. and above), one week, dry powder; 10080 min; cited from earlier work
various organisms = settings: cited from earlier work
[2] = Toxicity data (LD50) in rat; assay type: in vivo; settings: in vivo, route not stated
Method: (§1) Toxicity data (LD50) was determined for the following compounds which are utilized in the instant invention or prepared according to the instant invention.

Rat = test: Toxicity data (LD50) in rat; assay type: in vivo; settings: route not stated
Method: as §1

[3] = Stabilities at elevated temperatures (percent potency loss by HPLC, dry containers); assay type: physicochemical
Method: Elevated temperature stabilities were determined by storing the preparations in dry containers (1 dram screw cap vials) at temperatures and for time periods as denoted below. Potency losses or gains were determined by HPLC. […] Each compound form tested was prepared in accordance with the example which is designated.

[4] = Stability in aqueous solution; assay type: physicochemical; settings: 250 mg/ml aqueous solution, ambient pH 4 to 5, at least six hours at 25° C.; 360 min
From the text: These crystalline adducts display acceptable stability when they are placed in solution.

[5] = HPLC stability of Example 1 di(1-methyl-2-pyrrolidinone) adduct at 70° C.; assay type: physicochemical
Method: 1.0 g of the sulfuric acid addition salt of the zwitterion is vigorously slurried in 10 ml of 1-methyl-2-pyrrolidinone (NMP-2) at 25° C.-45° C. The crystalline mass is mixed with 0.49 ml (2.02 molar equivalents) of triethylamine (TEA) over a period of 0.5 to 1.5 hours. The mixture is seeded with 1-methyl-2-pyrrolidinone adduct and vigorously stirred for 6 to 24 hours. The crystals are then separated by vacuum filtration, washed with two 3 ml portions of 1-methyl-2-pyrrolidinone, two 5 ml portions of ether and vacuum dried at 45° to 55° C. for 2 hours.

In the case of CO/N=C(\C(=O)NC1C(=O)N2C(C(=O)[O-])=C(C[N+]3(C)CCCC3)CSC12)c1csc(N)n1 (centres unmarked) [Zwitterion, 7-[(Z)-2-methoxyimino-2-(2-aminothiazol-4-yl)acetamido]-3-[(1-methyl-1-pyrrolidinium)methyl]-3-cephem-4-carboxylate], the “loss of activity on storage” value [1] is listed as at least 30%, the “utility against various organisms” value (various organisms; data in U.S. Pat. No. 4,406,899) is listed as “broad spectrum utility against various organisms” and the “spectrum of activity compared with ceftazidime and cefotaxime” value (various organisms; zwitterion form vs ceftazidime and cefotaxime) is listed as “broader spectrum activity than ceftazidime and cefotaxime”. The LD50 [2] was 665 mg/kg.

For CN1CCCC1=O [1-Methyl-2-pyrrolidinone, 1-methyl-2-pyrrolidinone], the “Rat LD50” value (Rat) was under 2500 mg/kg and the LD50 [2] was over 2000 mg/kg.

With CO/N=C(\C(=O)NC1C(=O)N2C(C(=O)[O-])=C(C[N+]3(C)CCCC3)CSC12)c1csc(N)n1 (centres unmarked) [Zwitterion (Amorphous), 7-[(Z)-2-methoxyimino-2-(2-aminothiazol-4-yl)acetamido]-3-[(1-methyl-1-pyrrolidinium)methyl]-3-cephem-4-carboxylate, reference compound] the “PERCENT LOSS” value ([3]; 45° C., 1 week, 10080 min) was 34.1%, the “PERCENT LOSS” value ([3]; 45° C., 4 weeks, 40320 min) was 71% and the “PERCENT LOSS” value ([3]; 56° C., 1 week, 10080 min) was 49.6%. For the same compound, the “PERCENT LOSS” value ([3]; 70° C., 1 day, 1440 min) was 34.5%, the “PERCENT LOSS” value ([3]; 70° C., 2 days, 2880 min) was 46.2% and the “PERCENT LOSS” value ([3]; 70° C., 3 days, 4320 min) was 55.2%. The degraded at 24 h ([3]; dry solid, 100° C., 1 day) was 100%.

In the case of CO/N=C(\C(=O)NC1C(=O)N2C(C(=O)[O-])=C(C[N+]3(C)CCCC3)CSC12)c1csc(N)n1 (centres unmarked), the “PERCENT LOSS” value ([3]; 37° C., 1 month, 43200 min, listed as Di(NFP) Adduct) is reported as 0%, the “PERCENT LOSS” value ([3]; 45° C., 1 week, 10080 min, listed as Di(NFP) Adduct) is reported as 0-3% and the “PERCENT LOSS” value ([3]; 45° C., 4 weeks, 40320 min, listed as Di(NFP) Adduct) is reported as 3.5-5.9%. The “PERCENT LOSS” value ([3]; 56° C., 1 week, 10080 min, listed as Di(NFP) Adduct) was 7.1%, the “PERCENT LOSS” value ([3]; 56° C., 2 weeks, 20160 min, listed as Di(NFP) Adduct) was 9.3% and the “PERCENT LOSS” value ([3]; 70° C., 1 day, listed as Di(NFP) Adduct, 1440 min) was 1.5%. The “PERCENT LOSS” value ([3]; 70° C., 3 days, listed as Di(NFP) Adduct, 4320 min) was 0-4.4%, the degraded at 672 h ([3]; dry solid, 56° C., 4 weeks) was 18.1% and the “Rat LD50” value (Rat; listed as Di(N--formyl pyrrolidine) adduct) was 495 mg/kg.

For CO/N=C(\C(=O)NC1C(=O)N2C(C(=O)[O-])=C(C[N+]3(C)CCCC3)CSC12)c1csc(N)n1 (centres unmarked) [Zwitterion (Crystalline), 7-[(Z)-2-methoxyimino-2-(2-aminothiazol-4-yl)acetamido]-3-[(1-methyl-1-pyrrolidinium)methyl]-3-cephem-4-carboxylate], the “temperature stability of crystalline vs amorphous form” value [3] was “more temperature stable than the amorphous form”, the “PERCENT LOSS” value ([3]; 37° C., 1 month, 43200 min) was 20.0% and the “PERCENT LOSS” value ([3]; 45° C., 1 week, 10080 min) was 14.2%. For the same compound, the “PERCENT LOSS” value ([3]; 56° C., 1 week, 10080 min) was 25.6%, the “PERCENT LOSS” value ([3]; 56° C., 2 weeks, 20160 min) was 30.0% and the “PERCENT LOSS” value ([3]; 70° C., 2 days, 2880 min) was 13.5%. For the same compound, the “PERCENT LOSS” value ([3]; 70° C., 3 days, 4320 min) was 20.5% and the degraded at 336 h ([3]; dry solid, 45° C., 2 weeks) was 23%.

In the case of CN1CCCC1=O.CN1CCCC1=O.CO/N=C(\C(=O)NC1C(=O)N2C(C(=O)[O-])=C(C[N+]3(C)CCCC3)CSC12)c1csc(N)n1 (centres unmarked) [Di(1-methyl-2-pyrrolidinone) adduct, di(1-methyl-2-pyrrolidinone) adduct of 7-[(Z)-2-methoxyimino-2-(2-aminothiazol-4-yl)acetamido-]3-[(1-methyl-1-pyrrolidinium)methyl]-3-cephem-4-carboxylate], the “potency loss in aqueous solution” value [4] is reported as “less than 10%”, the “HPLC Stability % Loss” value ([5]; 1 Day) is reported as 0-2.3% and the “HPLC Stability % Loss” value ([5]; 3 Days) is reported as 5-6.5%. The “PERCENT LOSS” value ([3]; 37° C., 3 months, 129600 min) was 1.2%, the “PERCENT LOSS” value ([3]; 45° C., 4 weeks, 40320 min) was 1.6% and the “PERCENT LOSS” value ([3]; 45° C., 6 weeks, 60480 min) was 3.0%. The “PERCENT LOSS” value ([3]; 45° C., 8 weeks, 80640 min) was 0-3%, the “PERCENT LOSS” value ([3]; 56° C., 1 week, 10080 min) was 2.1% and the “PERCENT LOSS” value ([3]; 56° C., 2 weeks, 20160 min) was 3.4%. For the same compound, the “PERCENT LOSS” value ([3]; 56° C., 4 weeks, 40320 min) was 4.2%, the “PERCENT LOSS” value ([3]; 56° C., 6 weeks, 60480 min) was 7.0% and the “PERCENT LOSS” value ([3]; 56° C., 8 weeks, 80640 min) was 0.9%. For the same compound, the “PERCENT LOSS” value ([3]; 70° C., 1 day) was 0%, the “PERCENT LOSS” value ([3]; 70° C., 2 days) was 2.1% and the “PERCENT LOSS” value ([3]; 70° C., 3 days) was 2.1%. For the same compound, the “PERCENT LOSS” value ([3]; 70° C., 5 days) was 2.1%, the “PERCENT LOSS” value ([3]; 100° C., 1 day) was 13-16% and the “Rat LD50” value (Rat) was 663 mg/kg.

For O=CN1CCCC1 [N--Formyl pyrrolidine, N-formyl pyrrolidine], the “Rat LD50” value (Rat) was under 1000 mg/kg and the LD50 [2] was over 500 mg/kg.
